Assay results: article PMC4191400 (Nucleic Acids Research, 2014)
Where “and” joins values, the source holds several entries; their conditions need not be identical. Identical values can stand only once. Like-named read-outs stand apart in the source and are kept apart here.

Columns and labels:
K101R/E138D/K103N HIV-1 = experiment: HIV-1 drug susceptibility assay, K101R/E138D/K103N virus; format: cell-based; conditions: for EC50: Human immunodeficiency virus 1, head: P4/R5 cells, footnote: TZM-bl cells, mean ± SD, read-out: EC50, inhibition of HIV-1 replication
Method: (§1) The genes for K103N, E138D/K101R and K101R/K103N/E138D RT were cloned into HIV-1LAI ([11]). NNRTI susceptibility was determined in TZM-bl cells as described previously ([21]).

K101R/E138D HIV-1 = experiment: HIV-1 drug susceptibility assay, K101R/E138D virus; format: cell-based; conditions: for EC50: Human immunodeficiency virus 1, head: P4/R5 cells, footnote: TZM-bl cells, mean ± SD, read-out: EC50, inhibition of HIV-1 replication
Method: as §1

WT HIV-1 = experiment: HIV-1 drug susceptibility assay (inhibition of HIV-1 replication), WT virus; format: cell-based; conditions: Human immunodeficiency virus 1, head: P4/R5 cells, footnote: TZM-bl cells, mean ± SD, at least three experiments
Method: as §1

K103N HIV-1 = experiment: HIV-1 drug susceptibility assay, K103N virus; format: cell-based
Method: as §1

WT RT–T/P complex [1] = molecular target: WT RT–T/P complex (Human immunodeficiency virus type 1 group M subtype B, UniProt P04585, C625V/C867S/D837C/T726C); parameters: species or system HIV-1; conditions: for Eapp (apparent FRET energy transfer, fingers-thumb): mean ± SD
Method: Single-molecule total internal reflection fluorescence (TIRF) microscopy was performed as described previously ([19]). For the PIFE assays, Cy3-labeled T/P molecules were surface-tethered to a polyethylene glycol (PEG) treated flow cell via a biotin:streptavidin:biotin-PEG linkage. The concentrations of T/P were typically 20 pM, which provided an optimal surface density of ∼100 molecules per field of view. […] For the FRET assays, unlabeled T/P was surface-tethered by introducing 2 μM T/P into the flow cell to allow formation of a surface-dense layer of T/P substrates. Labeled RT (40 pM) was then introduced into the flow cell and allowed to bind to the T/P. Unbound RT was removed by washing. The PIFE and FRET data were analyzed as described in Supplementary Materials and Methods.
All experiments were performed in 50 mM Tris-HCl, pH 7.5, 25 mM NaCl, and 5 mM MgCl2.
The buffer used in TIRF microscopy experiments also contained 0.1 mg/ml glucose oxidase, 0.02 mg/ml catalase, 0.4% wt/v β-d-glucose, and 2 mM Trolox. Unless otherwise indicated, the TTP, EFV and NVP concentrations were held at 50 μM, 500 nM and 1 μM, respectively, […]
Unlabeled T/P was surface tethered by introducing 2 µM T/P into the flow cell to allow formation of a surface-dense layer of T/P substrates, which promoted observation of RT-T/P complexes. 40 pM of labeled RT was then introduced into the flow cell and allowed to bind to the T/P. Unbound RT was removed by extensive washing. Low concentrations of RT followed by a wash step eliminated excess background noise and/or saturation of the EMCCD. Based on the relative distribution of donor and acceptor intensities observed in the TIRFM fields of view, […]
analyzed. Eapp was calculated using the equation: […]
where ID and IA denote background-corrected donor and acceptor intensities, respectively.
RT. Eapp histograms were subsequently constructed by collecting the pre-photobleach regions of all traces visibly resulting in donor and acceptor photobleaching, binned into 25 bins, and then fit with single Gaussian functions (see Supplementary Figure 3). Thumb/fingers distances reported in Supplementary Table 1 were derived from the fitted Eapp values using the Förster equation: […]
where r is the distance between the dipoles of Cy3 and Cy5, and Ro is the empirically calculated

K103N RT–T/P complex [2] = molecular target: T1, K103N RT–T/P complex (Human immunodeficiency virus type 1 group M subtype B, UniProt P04585, K690N); format: binding, HIV-1; conditions: K103N vs WT RT–T/P complex
T1 construct: asymmetric heterodimer composed of a 66-kDa (p66) subunit and a p66-derived 51-kDa (p51) subunit; made in house
Method: (§2) Fluorescence anisotropy experiments were performed as previously described ([17],[18]). Assays were carried out using a fluorescein-labeled T/P substrate. The concentration of T/P in all experiments was 5 nM (in a 400-μl cuvette). Data were analyzed as described in the Supplementary Materials and Methods section.
(§3) -ddC-3’) was annealed to a 5’-biotinylated 35 nucleotide DNA […]
(§4) template (5’-biotin-[…]-3’). We also […]
(§5) performed PIFE experiments using a 21 nucleotide DNA primer (5’-Cy3- […]
(§6) -ddC-3’) annealed to the same template. For the single-pair FRET experiments, the same T/P was used, but it lacked 5’-Cy3. For the anisotropy […]
(§7) Fluorescence anisotropy experiments were performed as previously described (5, 6), using a Varian Cary Eclipse fluorescence spectrophotometer. […]
(§8) 5 and 10 nm respectively. […] Anisotropy (r) was calculated as: r= (IVV-G·IVH)/(IVV+2·G·IVH) (1) where IVV is the fluorescence intensity with vertically oriented excitation and emission polarizers and IVH is the fluorescence intensity with a vertically oriented excitation polarizer and a horizontally oriented emission polarizer. The G-factor, defined as G=IHV/IHH, was measured […]
(§9) For all theoretical calculations, r was calculated using the Perrin equation: r=ro/(1+τ/ θ)                 (2) where ro is the fundamental anisotropy, τ  the lifetime and θ  the rotational correlation time (7). […]
(§10) analyzed. […]

WT RT–T/P complex [3] = molecular target: T2, WT RT–T/P complex (Human immunodeficiency virus type 1 group M subtype B, UniProt P04585); experiment: biochemical; parameters: species or system HIV-1; conditions: fluorescence anisotropy, 5 nM T/P, read-out: Kd, NNRTI binding to the RT–T/P complex
T2 construct: asymmetric heterodimer composed of a 66-kDa (p66) subunit and a p66-derived 51-kDa (p51) subunit; made in house
Method: as §2, §3, §4, §5, §6, §7, §8, §9, §10

E138D HIV-1 RT = molecular target: T3, E138D HIV-1 RT (Human immunodeficiency virus type 1 group M subtype B, UniProt P04585, E725D); experiment: Inhibition of RT RNA-dependent DNA polymerase activity, E138D RT; format: biochemical
T3 construct: asymmetric heterodimer composed of a 66-kDa (p66) subunit and a p66-derived 51-kDa (p51) subunit; made in house
Method: (§11) The RNA- and DNA-dependent DNA polymerase activities of the purified and labeled RTs were assessed as described previously ([14]).

WT HIV-1 RT = molecular target: T4, WT HIV-1 RT (Human immunodeficiency virus type 1 group M subtype B, UniProt P04585); experiment: biochemical; conditions: mean ± SD, at least four experiments, read-out: IC50, inhibition of RT RNA-dependent DNA polymerase activity
T4 construct: asymmetric heterodimer composed of a 66-kDa (p66) subunit and a p66-derived 51-kDa (p51) subunit; made in house
Method: as §11

K101R/E138D HIV-1 RT = molecular target: T5, K101R/E138D HIV-1 RT (Human immunodeficiency virus type 1 group M subtype B, UniProt P04585, E725D/K688R); experiment: Inhibition of RT RNA-dependent DNA polymerase activity, K101R/E138D RT; format: biochemical
T5 construct: asymmetric heterodimer composed of a 66-kDa (p66) subunit and a p66-derived 51-kDa (p51) subunit; made in house
Method: as §11

K101R HIV-1 RT = molecular target: T6, K101R HIV-1 RT (Human immunodeficiency virus type 1 group M subtype B, UniProt P04585, K688R); experiment: Inhibition of RT RNA-dependent DNA polymerase activity, K101R RT; format: biochemical
T6 construct: asymmetric heterodimer composed of a 66-kDa (p66) subunit and a p66-derived 51-kDa (p51) subunit; made in house
Method: as §11

K103N RT–T/P complex [4] = molecular target: T1, K103N RT–T/P complex; experiment: dTTP binding to RT-T/P complex by fluorescence anisotropy, K103N; parameters: species or system HIV-1; conditions: presence vs absence of EFV
Method: as §2, §3, §4, §5
-ddC-3’) annealed to the same template. For the single-pair FRET experiments, the same T/P was used, but it lacked 5’-Cy3. For the anisotropy experiments we used a 19 nt DNA primer (5’-Fluorescein-dT-[…]- […]
Fluorescence anisotropy experiments were performed as previously described (5, 6), using a Varian Cary Eclipse fluorescence spectrophotometer. […] Anisotropy (r) was calculated as: r= (IVV-G·IVH)/(IVV+2·G·IVH) (1) where IVV is the fluorescence intensity with vertically oriented excitation and emission polarizers and IVH is the fluorescence intensity with a vertically oriented excitation polarizer and a horizontally oriented emission polarizer. The G-factor, defined as G=IHV/IHH, was measured before each experiment to ensure a value of ~ 1.65. […]
For fluorescein, empirically determined values of ro = […] and τ = 4.1 ns were used (8, 9). θ was calculated using the equation: […]
as §10

[5] = Human immunodeficiency virus 1, K103N virus, head: P4/R5 cells, footnote: TZM-bl cells, mean ± SD, read-out: EC50, inhibition of HIV-1 replication

O=C1Nc2ccc(Cl)cc2[C@@](C#CC2CC2)(C(F)(F)F)O1 [Efavirenz, efavirenz]
EC50 (K101R/E138D/K103N HIV-1): 15.9 ± 2.4 nM
Increase of susceptibility (as measured by IC50 and EC50) by the E138D/K101R mutation (K101R/E138D HIV-1; E138D/K101R vs WT): up to 7 fold
EC50 (K101R/E138D HIV-1; K101R/E138D virus): 0.2 nM
EC50 (WT HIV-1): 1.3 ± 0.2 nM
EC50 (K103N HIV-1; Human immunodeficiency virus 1, read-out: EC50, inhibition of HIV-1 replication): 64 ± 18.7 nM

Cc1ccnc2c1NC(=O)c1cccnc1N2C1CC1 [Nevirapine, nevirapine]
EC50 (K101R/E138D/K103N HIV-1): > 200 nM
EC50 (K101R/E138D HIV-1; K101R/E138D virus): 21.6 ± 16.8 nM
Eapp (apparent FRET energy transfer, fingers-thumb) (WT RT–T/P complex [1]; WT RT-T/P plus NNRTI (EFV 500 nM, NVP 1 μM), centre of Gaussian fit, listed as NVP): 0.68 ± 0.18 and 0.68
Eapp (apparent FRET energy transfer, fingers-thumb) (WT RT–T/P complex [1]; WT RT-T/P-dNTP plus NNRTI): 0.72 ± 0.14
Average opening of the fingers and thumb (WT RT–T/P complex [1]; WT RT–T/P complex, NNRTI vs no inhibitor): 2.0 Å
Effect on fingers/thumb FRET of the ternary complex (WT RT–T/P complex [1]; WT RT–T/P–dNTP complex, NNRTI infused): did not affect the FRET histogram
EC50 (WT HIV-1): 24.6 ± 5.9 nM
EC50 (K103N HIV-1; [5]): > 200 nM
Decrease of binding affinity by the K103N substitution (K103N RT–T/P complex [2]): ~10 fold

Cc1cc(/C=C/C#N)cc(C)c1Nc1ccnc(Nc2ccc(C#N)cc2)n1 [Rilpivirine, rilpivirine]
Kd (WT RT–T/P complex [3]): 82.5 nM
Fold-R (EC50 mutant/EC50 WT) (K101R/E138D/K103N HIV-1): 0.3
EC50 (K101R/E138D/K103N HIV-1): 0.12 ± 0.03 nM
EC50 (K101R/E138D HIV-1; K101R/E138D virus): 0.06 ± 0.01 nM
Fold-R (EC50 mutant/EC50 WT) (K101R/E138D HIV-1; K101R/E138D virus): 0.2
Fold-R (IC50 mutant/IC50 WT) (E138D HIV-1 RT): 0.4
IC50 (E138D HIV-1 RT; mean ± SD): 8.3 ± 1.2 nM
EC50 (WT HIV-1): 0.37 ± 0.06 nM
IC50 (WT HIV-1 RT): 22.5 ± 2.2 nM
EC50 (K103N HIV-1; [5]): 0.4 ± 0.1 nM
Fold-R (EC50 mutant/EC50 WT) (K103N HIV-1; K103N virus): 1.1
Effect of the K103N substitution on NNRTI binding affinity (K103N RT–T/P complex [2]): did not decrease the binding affinity
Fold-R (IC50 mutant/IC50 WT) (K101R/E138D HIV-1 RT): 0.5
IC50 (K101R/E138D HIV-1 RT; mean ± SD): 11.2 ± 0.8 nM
Fold-R (IC50 mutant/IC50 WT) (K101R HIV-1 RT): 0.7
IC50 (K101R HIV-1 RT; mean ± SD): 15.5 ± 7.6 nM

Cc1cn([C@H]2C[C@H](O)[C@@H](COP(=O)(O)OP(=O)(O)OP(=O)(O)O)O2)c(=O)[nH]c1=O [dTTP]
Increase of Kd for dTTP binding in the presence of inhibitor (K103N RT–T/P complex [4]): 3 fold
